Source: ChEMBL document CHEMBL1125463, “Inhibition of N8-acetylspermidine deacetylase by active-site-directed metal coordinating inhibitors” (J Med Chem, 1992)

What was measured:
[1] = In vitro inhibition of N8-Acetylspermidine deacetylase from rat liver cytosol(apparent Ki); conditions: for Ki: read-out: Ki app
[2] = (§1) In vitro inhibition of N8-Acetylspermidine deacetylase from rat liver cytosol; conditions: read-out: Ki app
Rattus norvegicus = organism: Rattus norvegicus; test: as §1
[3] = In vitro inhibition of N8-Acetylspermidine deacetylase from rat liver cytosol(apparent Ki); Ni means no inhibition

| Ki [1] | Compound | other results |
| --- | --- | --- |
| 0.001 µM | NCCCNCCCCCC(=O)NO |  |
|  | NCCCNCCCCCC(=O)O | Ki [2]: 0.011 mM |
| 800 µM | CC(=O)NCCCCN |  |
|  | c1cnc2ccc3ncccc3c2c1 | Ki app [1]: No inhibition |
|  | CC(=O)NCCCCNCCCN | Km (Rattus norvegicus): 11 µM |
| 4100 µM | NCCCCC(=O)O [5-AMINOVALERIC ACID] |  |
| 50 µM | NCCCCCC(=O)O [AMINOCAPROIC ACID] |  |
|  | c1ccc(-c2ccccn2)nc1 [DIPYRIDYL] | Ki [2]: 1.9 mM |
|  | O=C(O)CN(CCN(CC(=O)O)CC(=O)O)CC(=O)O [EDETIC ACID] | Ki [2]: 3.5 mM |
|  | NC(=O)CI [IODOACETAMIDE] | Ki app [3]: Not Active |
| 860 µM | CCN1C(=O)C=CC1=O [N-ETHYLMALEIMIDE] |  |
| 1300 µM | c1cnc2c(c1)ccc1cccnc12 [PHENANTHROLINE] |  |
| 38500 µM | CCCC(=O)[O-].[Na+] [SODIUM BUTYRATE] |  |

| Compound | Ki [1] | other results |
| --- | --- | --- |
| Para-Hydroxymercuribenzoic acid | 150 µM |  |
